# Where two headings read alike, the source gives them in different places.
# Tests used:
# [1] = system: Abeta oligomer-induced synapse loss in primary hippocampal neurons; test: Synapse loss assay; format: cell-based, rat; settings: for Block synapse loss: Table 11B
# Description: In this assay, Abeta oligomers were brought in contact with mature primary neurons in culture and their binding was determined by immunohistochemistry (anti-Abeta antibody) and quantified by image processing. The amount of Abeta in neuronal dendrites is assessed by counting the number of labeled puncta on the neuritis. […] This labeling is associated with synapses, co-localizing with the post-synaptic scaffold protein PSD-95 (Lacor et al., '04). […] The number of synapses can also be quantified in this assay by immunofluorochemistry. Similar procedures for binding assays can be found in the literature. […] Review.
# Primary hippocampal neuronal culture was established as in the membrane trafficking assay above. […] Pretreatment with compounds to be tested lasted for 1 hr and addition of Abeta oligomers or no oligomer (vehicle alone) in a final concentration of 70 ul was followed by incubation for an additional 23 hrs.
# The plates were then washed 3× with PBS for 5 min each. The plates were blocked at RT for 1 hr in 5% goat serum and 0.5% Triton X-100 in PBS. […] Primary antibodies were incubated overnight at 4° C. The plates were then washed 3× with PBS for 5 min each. […] Secondary antibodies were incubated at RT for 1 hr. The plates were washed once with PBS. DAPI (4′,6-diamidino-2-phenylindole, Invitrogen) was then applied at 0.03 ug/ul and incubated at RT for 5 min, then washed with PBS.
# sigma-2 receptor [2] = molecular target: T1, sigma-2 receptor (Rattus norvegicus, UniProt Q5U3Y7); test: Sigma-2 competitive radioligand binding, [3H]DTG with 300 nM (+)pentazocine, rat cerebral cortex membranes
# T1 sequence (Q5U3Y7 1-176): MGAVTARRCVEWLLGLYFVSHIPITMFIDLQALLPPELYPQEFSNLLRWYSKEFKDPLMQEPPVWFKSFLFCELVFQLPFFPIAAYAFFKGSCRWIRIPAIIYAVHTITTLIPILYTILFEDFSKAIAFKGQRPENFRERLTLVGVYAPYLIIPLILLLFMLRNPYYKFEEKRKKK
# Description: (§1) Reactions were terminated by rapid filtration through Whatman GF/C filters using a Brandel 12R cell harvester followed by two washes with ice-cold buffer. Radioactivity on the dried filter discs was measured using a liquid scintillation analyzer (Tri-Carb 2900TR; PerkinElmer Life and Analytical Sciences). The displacement curves were plotted and the Ki values of the test ligands for the receptor subtypes were determined using GraphPad Prism (GraphPad Software Inc., San Diego, Calif.). The percentage specific binding was determined by dividing the difference between total bound (disintegrations per minute) and nonspecific bound (disintegrations per minute) by the total bound (disintegrations per minute).
# Sigma-1 receptors [3] = molecular target: Sigma-1 receptors (Homo sapiens, UniProt Q99720); test: Sigma-1 competitive radioligand binding, [3H](+)pentazocine, Jurkat cell membranes
# Description: as §1
# [4] = system: Abeta oligomer-induced membrane trafficking deficits in primary hippocampal neurons; test: Membrane trafficking/exocytosis (MTT) assay; format: cell-based, rat; settings: for IC50: read-out: Membrane trafficking IC50
# Description: The methods used to generate the results were as follows in the Membrane Trafficking/Exocytosis (MTT) assay.
# Primary hippocampal neurons from E18 Sprague-Dawley rat embryos were plated at optimized concentrations in 384 well plates in NB media (Invitrogen). Neurons were maintained in cultures for 3 weeks, with twice weekly feeding of NB media with N2 supplement (Invitrogen).
# A test compound was added to cells at concentrations ranging from 100 uM to 0.001 nM followed by addition of vehicle or Abeta oligomer preparations (3 μM total Abeta protein concentration), and incubated for 1 to 24 hr at 37° C. in 5% CO2. MTT reagent (3-(4,5-dimethylthizaol-2-yl)-2,5diphenyl tetrazolium bromide) (Roche Molecular Biochemicals) was reconstituted in phosphate buffered saline to 5 mg/mL. 10 μl, of MTT labeling reagent is added to each well and incubated at 37° C. for 1 h, then imaged. Exocytosis was assessed by automated microscopy and image processing to quantify the amount of endocytosed and exocytosed formazan.
# Each assay plate was formatted so that compounds are tested with and without Abeta oligomer on each plate.
# sigma-2 receptor [5] = molecular target: T1, sigma-2 receptor; set-up: other: known prior art compounds, published studies; settings: cited from earlier work
# Sigma-1 receptors [6] = settings: known prior art compounds; cited from earlier work
# Sigma-1 receptors [7] = molecular target: T2, Sigma-1 receptors (UniProt Q60492); settings: cited from earlier work
# T2 construct: other: known prior art compounds, published studies
# [8] = Sigma 2 Binding Ki (nM), Table 2, own compounds
# [9] = Sigma 1 Binding Ki (nM), Table 2, own compounds
# [10] = dosed prior to Abeta oligomer addition, read-out: EC50 in inhibiting amyloid beta effect in Cell Measured by Membrane Trafficking Assay
# [11] = Table 11C, read-out: S2 binding Ki
# [12] = Table 11D, read-out: Sigma-2 Receptor Ki
# [13] = known prior art compounds, published studies, read-out: Sigma 2 Binding Ki
# [14] = Table 11C, known prior art compounds, read-out: Inhibition Abeta oligomer-induced Membrane Trafficking EC50
# [15] = Table 11C, read-out: S1 binding Ki
# [16] = known prior art compounds, published studies, read-out: Sigma 1 Binding Ki
# [17] = Rattus norvegicus, Hippocampal neuron, dosed prior to Abeta oligomer addition, read-out: EC50 in inhibiting amyloid beta effect in Cell Measured by Membrane Trafficking Assay
# [18] = Rattus norvegicus, Hippocampal neuron, Table 11C, known prior art compounds, read-out: Inhibition Abeta oligomer-induced Membrane Trafficking EC50
# [19] = scaffold drawing 245, R' varied, read-out: Membrane Trafficking EC50
# [20] = Table 11D, read-out: Sigma-1 Receptor Ki
# Sigma-1 receptors (Homo sapiens, UniProt Q99720), sequence (Q99720 whole entry): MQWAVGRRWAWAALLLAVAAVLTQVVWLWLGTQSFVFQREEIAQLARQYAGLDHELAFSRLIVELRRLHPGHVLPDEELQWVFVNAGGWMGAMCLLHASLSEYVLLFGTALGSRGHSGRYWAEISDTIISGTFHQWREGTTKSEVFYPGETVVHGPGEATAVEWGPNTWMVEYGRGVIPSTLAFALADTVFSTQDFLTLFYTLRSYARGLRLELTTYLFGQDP
compound,measurement,setting,value
"COc1cc(CCC(C)NCc2ccc(C(F)(F)F)cc2)ccc1O (single isomer, unassigned) [II (+) isomer]",Block synapse loss,[1],47%
same,Ki,"sigma-2 receptor [2]; S2 binding Ki (nM), Table 11B",80 nM
same,Ki,sigma-2 receptor [2]; [8],52 nM
same,Ki,"Sigma-1 receptors [3]; S1 binding Ki (nM), Table 11B",100 nM
same,Ki,Sigma-1 receptors [3]; [9],100 nM
same,EC50,"[4]; Rattus norvegicus, Hippocampal neuron, Table 11B, read-out: Inhibition Abeta oligomer-induced Membrane Trafficking EC50",5600 nM
same,Functional Neuronal Phenotype,[4]; Table 11B,Antagonist
"COc1cc(CCC(C)NCc2ccc(C(F)(F)F)cc2)ccc1O (single isomer, unassigned) [II (−) isomer]",Block synapse loss,[1],0%
same,Ki,"sigma-2 receptor [2]; S2 binding Ki (nM), Table 11B",63 nM
same,Ki,sigma-2 receptor [2]; [8],63 nM
same,Ki,"Sigma-1 receptors [3]; S1 binding Ki (nM), Table 11B",46 nM
same,Ki,Sigma-1 receptors [3]; [9],46 nM
same,Functional Neuronal Phenotype,[4]; Table 11B,Antagonist
"COc1cc(CCC(C)NCc2ccc(C(F)(F)F)cc2)ccc1O (single isomer, unassigned; (+)) [(+) enantiomer of Cpd II]",EC50,[4]; read-out: EC 50 in screening assay using single concentration of Abeta oligomer,5600 nM
"COc1cc(CCC(C)NCc2ccc(C(F)(F)F)cc2)ccc1O (single isomer, unassigned; (+)) [(+) enantiomer]",EC50,[4]; [10],5600 nM
"COc1cc(CCC(C)NCc2ccc(C(F)(F)F)cc2)ccc1O (single isomer, unassigned; (-)) [(−) enantiomer]",EC50,[4]; [10],10900 nM
CN(CCc1ccc(Cl)c(Cl)c1)CCN1CCCC1 [BD1008],Ki,sigma-2 receptor [5]; [11],8 nM
same,Ki,sigma-2 receptor [5]; [12],8 nM
same,Ki,sigma-2 receptor [5]; [13],8 nM
same,Sigma 1 (Type of Activity),Sigma-1 receptors [6],(antagonist)
same,Functional Neuronal Phenotype,[4]; Table 11C,Antagonist
same,EC50,[4]; [14],1500 nM
same,Functional Neuronal Phenotype,[4]; Table 11D,Antagonist
same,IC50,[4]; Table 11D,1500 nM
CN1CCN(CCc2ccc(Cl)c(Cl)c2)CC1 [BD1063],Sigma 1 (Type of Activity),Sigma-1 receptors [6],(antagonist)
same,Ki,Sigma-1 receptors [7]; [15],8.8 nM
same,Ki,Sigma-1 receptors [7]; [16],8.8 nM
same,Functional Neuronal Phenotype,[4]; Table 11C,Inactive
same,EC50,[4]; [14],> 30000 nM
CC(C)=CC(C[C@H](C)c1ccc(C)cc1)NCC(C)C (stereo partly drawn) [Compound IXa],Ki,sigma-2 receptor [2],21 nM
same,Ki,Sigma-1 receptors [3],89 nM
same,Max Inhibition of Abeta (%),[4],76%
same,EC50,[4]; [17],4900 nM
Cc1ccc([C@@H](C)CC(CC(C)(C)O)NCC(C)C)cc1 (stereo partly drawn) [Compound IXb],Ki,sigma-2 receptor [2],23 nM
same,Ki,Sigma-1 receptors [3],190 nM
same,Max Inhibition of Abeta (%),[4],97%
same,EC50,[4]; [17],6900 nM
Cc1ccccc1NC(=N)Nc1ccccc1C [DTG],Sigma 1 (Type of Activity),Sigma-1 receptors [6],(agonist)
same,Max Inhibition of Abeta (%),[4],23%
same,EC50,[4]; [18],> 20000 nM
same,Functional Neuronal Phenotype,[4]; Table 11C,Inactive
COc1cc(CCC(C)NCc2ccc(Cl)cc2)ccc1O (stereo not drawn) [Entry 2],EC50,[4]; [19],12000 nM
COc1cc(CCC(C)NCc2ccccc2)ccc1O (stereo not drawn) [Entry 3],EC50,[4]; [19],20000 nM
COc1cc(CCC(C)NCCC(C)C)ccc1O (stereo not drawn) [Entry 4],EC50,[4]; [19],> 30000 nM
CNC(C)CCc1ccc(O)c(OC)c1 (stereo not drawn) [Entry 5],EC50,[4]; [19],30000 nM
CC(C(O)c1ccc(O)cc1)N1CCC(Cc2ccccc2)CC1 (stereo not drawn) [Ifenprodil],Max Inhibition of Abeta (%),[4],38%
same,EC50,[4]; [18],> 20000 nM
same,Functional Neuronal Phenotype,[4]; Table 11C,Inactive
"CC12CC3CC(C)(C1)CC(N)(C3)C2 [Memantine, memantine]",inhibition at 28 µM,"[4]; Rattus norvegicus, Hippocampal neuron, 28 μM, read-out: Inhibition of oligomer effects",50%
CCCN(CCC)CCc1ccc(OC)c(OCCc2ccccc2)c1 [NE100],Ki,sigma-2 receptor [5]; [13],170 nM
same,Sigma 1 (Type of Activity),Sigma-1 receptors [6],(antagonist)
same,Ki,Sigma-1 receptors [7]; [16],1.1 nM
CCCN(CCC)CCc1ccc(OC)c(OCCc2ccccc2)c1 [NE 100],Ki,sigma-2 receptor [5]; [11],170 nM
same,Ki,sigma-2 receptor [5]; [12],170 nM
same,Ki,Sigma-1 receptors [7]; [15],1.1 nM
same,Ki,Sigma-1 receptors [7]; [20],1.1 nM
same,Max Inhibition of Abeta (%),[4],98%
same,Functional Neuronal Phenotype,[4]; Table 11C,Antagonist
same,EC50,[4]; [14],1300 nM
same,Functional Neuronal Phenotype,[4]; Table 11D,Antagonist
same,IC50,[4]; Table 11D,1300 nM
CCCN(CCC)CCc1ccc(OC)c(OCCc2ccccc2)c1 [NE-100],Effect on Abeta oligomer-induced synapse loss,[1],completely eliminated synapse loss
COc1cccc2c1CCCC2CCCN1CCN(C2CCCCC2)CC1 (stereo not drawn) [PB 28],Ki,sigma-2 receptor [5]; [11],0.8 nM
same,Ki,sigma-2 receptor [5]; [12],0.8 nM
same,Ki,sigma-2 receptor [5]; [13],0.8 nM
same,Max Inhibition of Abeta (%),[4],84%
same,Functional Neuronal Phenotype,[4]; Table 11C,Antagonist
same,EC50,[4]; [14],1000 nM
same,Functional Neuronal Phenotype,[4]; Table 11D,Antagonist
same,IC50,[4]; Table 11D,1000 nM
c1ccc(CCCCN2CCC(c3ccccc3)CC2)cc1 [PPBP],Sigma 1 (Type of Activity),Sigma-1 receptors [6],(agonist)
same,Ki,Sigma-1 receptors [7]; [15],0.8 nM
same,Ki,Sigma-1 receptors [7]; [20],0.8 nM
same,Ki,Sigma-1 receptors [7]; [16],0.8 nM
same,Functional Neuronal Phenotype,[4]; Table 11C,Antagonist
same,EC50,[4]; [14],10900 nM
same,Functional Neuronal Phenotype,[4]; Table 11D,Antagonist
same,IC50,[4]; Table 11D,10900 nM
O=C(OCCN1CCOCC1)C1(c2ccccc2)CCCCC1 [PRE-84],Ki,sigma-2 receptor [5]; [13],13100 nM
same,Sigma 1 (Type of Activity),Sigma-1 receptors [6],(agonist)
same,Activity in membrane trafficking assay,[4],inactive
same,Max Inhibition of Abeta (%),[4],38%
same,Functional Neuronal Phenotype,[4]; Table 11C,Inactive
same,EC50,[4]; [14],> 30000 nM
C=CCN1CCC2(C)c3cc(O)ccc3CC1C2C (stereo not drawn) [SFK10047],Ki,sigma-2 receptor [5]; [13],39700 nM
same,Sigma 1 (Type of Activity),Sigma-1 receptors [6],(agonist)
"C=CCN1CC[C@]2(C)c3cc(O)ccc3C[C@H]1[C@H]2C [SKF 10,047]",Ki,sigma-2 receptor [5]; [11],> 10000 nM
same,Functional Neuronal Phenotype,[4]; Table 11C,Inactive
same,EC50,[4]; [14],> 30000 nM
CN[C@H]1CC[C@@H](c2ccc(Cl)c(Cl)c2)c2ccccc21 [Sertraline],Sigma 1 (Type of Activity),Sigma-1 receptors [6],(antagonist)
